{"source": "patent US4707497A", "about": "“Phenylethanolaminotetralines, a process for their preparation and pharmaceutical compositions containing them” (Sanofi, priority 1985, dated 1987)", "key": {"[1]": {"system": "epididymal white adipose tissue adipocytes", "assay": "Lipolytic activity in vitro on white adipose tissue (WAT) adipocytes, release of free fatty acids", "type": "cell-based", "details": "Rattus norvegicus, Adipocyte; compound 10^-6 M; per cent of noradrenaline effect at 5.10^-6 M (maximal effect); 37° C., 1 hour, pH 7.4", "from_the_text": "(§1) More particularly, the compounds of the present invention show a remarkable lipolytic activity in mammals in the tests predictive of said activity, such as in the test \"in vitro\" on the brown adipose tissue (BAT) and on the white adipose tissue (WAT) and in the test \"in vivo\", based upon the thermogenesis in the rat. More particularly, in the test \"in vitro\" male rats, each weighing 100-125 g, are sacrificed and the adipocytes of the interscapular brown adipose tissue and those of the epididymal white adipose tissue are dissected out, according to the method of M. Rodbell, J. Biol. Chem. 1967, 242, 5744-5750 and separately treated as follows. The adipocytes are incubated with the compound to be tested at a temperature of 37° C. for an hour in Phosphate Krebs-Ringer-(4%) albumine medium at pH 7.4. The long chain fatty acids that are released in the medium are determinated by the method reported by D.I. Trout and al., J. Lip. Res. 1960, 1, 199-202, and compared with the amount of the triglycerides present in the adipocytes, determined by the method of E. Van Handel and al., J. Lab. Clin. Med., 1957, 50, 152-157. The results obtained for representative compounds of the present invention are shown in TABLE I, where the lipolytic activity of the compounds at the dose of 10^-6 M, measured as release of free fatty acids (μEq), is expressed as per cent of the noradrenaline effect at the dose of 5.10^-6 M (maximal effect on both BAT and WAT)."}, "[2]": {"system": "adipocytes of the interscapular brown adipose tissue", "assay": "Lipolytic activity in vitro on brown adipose tissue (BAT) adipocytes, release of free fatty acids", "type": "cell-based", "details": "Rattus norvegicus, Adipocyte; compound 10^-6 M; per cent of noradrenaline effect at 5.10^-6 M (maximal effect); 37° C., 1 hour, pH 7.4", "from_the_text": "as §1"}, "mice": {"system": "mice", "assay": "Acute toxicity in mice", "type": "in vivo, mouse", "details": "oral dose up to 200 mg/kg"}, "interscapular BAT": {"system": "interscapular BAT", "assay": "Activity on brown adipose tissue thermogenesis in vivo in anaesthetized rats", "set-up": "species or system rat", "details": "7.5 mg/kg intraperitoneally", "experimental": "In the test \"in vivo\", the activity on brown adipose tissue thermogenesis is determined by the method reported by P. J. Wellman, Research Communication in Chemical Pathology and Pharmacology 1983, 41, 173-176.\nThe anaesthesied rats are treated intraperitoneally with the vehicle and 7.5 mg/kg of the compound to be tested. The interscapular BAT and rectal temperatures are recorded 10, 20 and 30 minutes after the injection."}}, "note": "Counter-ions that a name gives are not always drawn."}
{"smiles": "COc1ccc2c(c1)CC(NCC(O)c1ccccc1)CC2", "note": "(stereo not shown) [SR 58279A, 2-[(7-methoxy-1,2,3,4-tetrahydronaphth-2-yl)amino]-1-phenylethanol hydrochloride]", "values": [{"measurement": "activation at 1 µM", "setting": "[1]", "result": 30, "unit": "%"}, {"measurement": "activation at 1 µM", "setting": "[2]", "result": 50, "unit": "%"}]}
{"smiles": "Oc1ccc2c(c1)CC(NC[C@H](O)c1ccccc1)CC2", "note": "(single isomer, unassigned; (+)) [SR 58375A, hydrochloride]", "values": [{"measurement": "activation at 1 µM", "setting": "[1]", "result": 97, "unit": "%"}, {"measurement": "activation at 1 µM", "setting": "[2]", "result": 100, "unit": "%"}]}
{"smiles": "Cl.Oc1ccc2c(c1)CC(NCC(O)c1cccc(Cl)c1)CC2", "note": "(stereo not shown) [SR 58339A, 2-[(7-hydroxy-1,2,3,4-tetrahydronaphth-2-yl)amino]-1-(3-chlorophenyl)-ethanol hydrochloride]", "values": [{"measurement": "activation at 1 µM", "setting": "[1]", "result": 92, "unit": "%"}, {"measurement": "activation at 1 µM", "setting": "[2]", "result": 103, "unit": "%"}, {"measurement": "mortality", "setting": "mice", "result": "do not cause any mortality"}]}
{"smiles": "Oc1ccc2c(c1)CC(NCC(O)c1ccccc1)CC2", "note": "(stereo not shown) [SR 58306A, 2-[(7-hydroxy-1,2,3,4-tetrahydronaphth-2-yl)amino]-1-phenylethanol hydrochloride]", "values": [{"measurement": "activation at 1 µM", "setting": "[1]", "result": 78, "unit": "%"}, {"measurement": "activation at 1 µM", "setting": "[2]", "result": 80, "unit": "%"}]}
{"smiles": "CCOC(=O)COc1ccc2c(c1)CC(NCC(O)c1cccc(Cl)c1)CC2.O=C(O)C(=O)O", "note": "(stereo not shown) [SR 58380A, 2-[(7-carbethoxymethoxy-1,2,3,4-tetrahydronaphth-2-yl)amino]-1-(3-chlorophenyl)ethanol oxalate]", "values": [{"measurement": "activation at 1 µM", "setting": "[1]", "result": 90, "unit": "%"}, {"measurement": "activation at 1 µM", "setting": "[2]", "result": 96, "unit": "%"}, {"measurement": "mortality", "setting": "mice", "result": "do not cause any mortality"}]}
{"smiles": "Oc1ccc2c(c1)CC(NCC(O)c1ccccc1)CC2", "note": "(stereo not shown) [SR 58306, 2-[(7-hydroxy-1,2,3,4-tetrahydronaphth-2-yl)amino]-1-phenylethanol]", "values": [{"measurement": "ΔT, average difference between interscapular BAT temperature and rectal temperature", "setting": "interscapular BAT; 10' after injection, anaesthetized rats (vehicle 0.06 ± 0.04)", "result": "0.60 ± 0.10", "unit": "°C"}, {"measurement": "ΔT, average difference between interscapular BAT temperature and rectal temperature", "setting": "interscapular BAT; 20' after injection, anaesthetized rats (vehicle 0.10 ± 0.04)", "result": "0.90 ± 0.10", "unit": "°C"}, {"measurement": "ΔT, average difference between interscapular BAT temperature and rectal temperature", "setting": "interscapular BAT; 30' after injection, anaesthetized rats (vehicle 0.14 ± 0.05)", "result": "0.92 ± 0.08", "unit": "°C"}]}
{"smiles": "COc1ccc2c(c1)CC(NCC(O)c1cccc(Cl)c1)CC2", "note": "(stereo not shown) [SR 58338A, 2-[(7-methoxy-1,2,3,4-tetrahydronaphth-2-yl)amino]-1-(3-chloropheny)ethanol hydrochloride]", "values": [{"measurement": "activation at 1 µM", "setting": "[1]", "result": 89, "unit": "%"}, {"measurement": "activation at 1 µM", "setting": "[2]", "result": 77, "unit": "%"}]}
{"smiles": "Oc1ccc2c(c1)CC(NC[C@H](O)c1ccccc1)CC2", "note": "(stereo partly drawn) [SR 58365A, (1R,2'RS)-2-[(7-hydroxy-1,2,3,4-tetrahydronaphth-2-yl)amino]-1-phenylethanol hydrochloride]", "values": [{"measurement": "activation at 1 µM", "setting": "[1]", "result": 78, "unit": "%"}, {"measurement": "activation at 1 µM", "setting": "[2]", "result": 96, "unit": "%"}]}
